IC50 data for 18 molecules are collected here from patent US5936097A, “4,9-ethano-benzo(F)isoindole derivatives as farnesyl transferase inhibitors” (Rhone-Poulenc Rorer, S.A., priority 1995, dated 1999).

This assay concerns the target T1, human farnesyl transferase (Homo sapiens, UniProt P49354+P49356).
T1 construct: human farnesyl transferase purified from THP1 cell cultures; endogenous in cells; host or cells: THP1 cell cultures (enzyme purified from the cells)
Briefly: inhibition of farnesyl transferase ((3H) farnesyl transfer from (3H) FPP to p21 H-ras). The assay is classed as biochemical. The essentials: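 Radiometric transfer of [3H]farnesyl from 4.5 pmol [3H]FPP to 200 pmol p21 H-ras by ~5 ng human enzyme purified from THP1 cells, in 50 mM Tris-HCl, 5 mM MgCl2, 5 mM DTT, 0.2% octyl glucoside, 20 min at 37 °C. Protein precipitated with SDS/TCA in methanol, filter-bound counts measured; IC50 from 9 concentrations, triplicate.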

Setting [1] is: human farnesyl transferase purified from THP1 cell cultures, p21 H-ras substrate, 20 minutes at 37° C., 9 concentrations, read-out: in vitro inhibitory activity IC50.

As usually defined, the IC50 is the midpoint of a concentration-inhibition curve.

SMILES strings stand for the structures. Where two headings read alike, the source gives them in different places.

Regarding `C=Cc1ccc2c(c1)[C@]1(c3ccccc3)CC[C@H]2[C@@]2(C(=O)O)CN(C(=O)Cc3ccccc3OC)C[C@@H]12` (relative stereo) [Example 73, (3aRS,4SR,9SR,9aRS)-4,9-ethano-2-(2-methoxyphenyl)acetyl-9-phenyl-7-vinyl-2,3,3a,4,9,9a-hexahydro-1H-benzo[f]isoindole-3a-carboxylic acid], the IC50 under setting [1] is 3150 nM.
Turning to `COc1ccccc1CC(=O)N1C[C@H]2[C@@]3(c4ccccc4)CC[C@H](c4ccccc43)[C@@]2(C(=O)N[C@H](C)c2ccccc2)C1` [Example 57, N-[(R)-1-phenylethyl]-4,9-ethano-2-(2-methoxyphenyl)acetyl-9-phenyl-2,3,3a(S),4(R),9(R),9a(S)-hexahydro-1H-benzo[f]isoindole-3a-carboxamide], under setting [1], the IC50 came out at 860 nM.
For `CSc1ccccc1CC(=O)N1C[C@H]2[C@@]3(c4ccccc4)CC[C@H](c4ccccc43)[C@@]2(C(=O)O)C1` (relative stereo) [Example 30], the IC50 was determined as 600 nM.
Regarding `O=C(Cc1c[nH]c2ccc(Br)cc12)N1C[C@@H]2[C@]3(c4ccccc4)CC[C@@H](c4ccccc43)[C@]2(C(=O)O)C1` (relative stereo) [Example 35, (3aRS, 4SR, 9SR, 9aRS)-4,9-ethano-2-(5-bromo-3-indolyl)acetyl-9-phenyl-2,3,3a,4,9,9a-hexahydro-1H-benzo [f]isoindole-3a-carboxylic acid], the IC50 under setting [1] turned out to be 2150 nM.
As to `COc1ccccc1CC(=O)N1C[C@@H]2[C@]3(c4ccccc4)CC[C@@H](c4ccccc43)[C@]2(C(=O)NOCc2ccccc2)C1` (racemic) [Example 45, (3aRS,4SR,9SR,9aRS)-N-benzyloxy-4,9-ethano-2-(2-methoxyphenylacetyl)-9-phenyl-2,3,3a,4,9,9a-hexahydro-1H-benzo[f]isoindole-3a-carboxamide], under setting [1], the IC50 is 1270 nM.
With `COc1ccccc1CC(=O)N1C[C@@H]2[C@]3(c4ccccc4)CC[C@@H](c4ccccc43)[C@]2(C(=O)NCCC(=O)O)C1` (relative stereo) [Example 50, N-[(3aRS,4SR,9SR,9aRS)-4,9-ethano-2-(2-methoxyphenyl)acetyl-9-phenyl-2,3,3a,4,9,9a-hexahydro-1H-benzo[f]isoindol-3a-yl]carbonyl-3-aminopropanoic acid], the IC50 under setting [1] was 1300 nM.
On to `COc1ccccc1CC(=O)N1CC2C3(c4ccccc4)CCC(c4ccccc43)C2(C(=O)N[C@@H](CSCc2ccccc2)C(=O)O)C1` (stereo partly drawn) [Example 52, N-[(3aRS,4SR,9SR,9aRS)-4,9-ethano-2-(2-methoxyphenyl)acetyl-9-phenyl-2,3,3a,4,9,9a-hexahydro-1H-benzo[f]isoindol-3a-yl]carbonyl-S-benzyl-L-cysteine], for which the IC50 under setting [1] was 440 nM.
As to `COc1ccccc1C1(C(=O)N2C[C@@H]3[C@]4(c5ccccc5)CC[C@@H](c5ccccc54)[C@]3(C(=O)O)C2)CC1` (racemic) [Example 41, (3aRS,4SR,9SR,9aRS)-4,9-ethano-2-[1-(2-methoxyphenyl)-cyclopropan-1-oyl]-9-phenyl-2,3,3a,4,9,9a-hexa-hydro-1H-benzo[f]isoindole-3a-carboxylic acid], under setting [1], the IC50 turned out to be 1100 nM.
`CCCOc1ccccc1CC(=O)N1C[C@H]2[C@@]3(c4ccccc4)CC[C@H](c4ccccc43)[C@@]2(C(=O)O)C1` (relative stereo) [Example 80, (3aRS,4SR,9SR,9aRS)-4,9-ethano-9-phenyl-2-(2-n-propoxyphenyl)acetyl-2,3,3a,4,9,9a-hexahydro-1H-benzo[f]isoindole-3a-carboxylic acid]: under setting [1], the IC50 amounted to 800 nM.
Still for that read-out and setting: the result for `C=C(C(=O)N1C[C@H]2[C@@]3(c4ccccc4)CC[C@H](c4ccccc43)[C@@]2(C(=O)NCc2cccc(C(F)(F)F)c2)C1)c1ccccc1OC` [Example 89, (3aS,4R,9R,9aS)-N-[3-trifluorobenzyl]-4,9-ethano-2-[(2-methoxyphenyl)prop-2-en-1-oyl]-9-phenyl-2,3,3a,4,9,9a-hexahydro-1H-benzo[f]isoindole-3a-carboxamide] reads 780 nM.
Molecule `COC(=O)[C@]12CN(C(=O)Cc3ccccc3OC)C[C@H]1[C@@]1(c3ccccc3)CC[C@@H]2c2ccccc21` (relative stereo) [Example 1, methyl ester of (3aRS, 4SR, 9SR, 9aRS)-4,9-ethano-2-(2-methoxyphenyl)acetyl-9-phenyl-2,3,3a,4,9,9a-hexahydro-1H-benzo[f]isoindole-3a-carboxylic acid] showed an IC50 of 410 nM.
For `COc1ccccc1CC(=O)N1C[C@H]2[C@@]3(c4ccccc4)CC[C@H](c4ccccc43)[C@@]2(CC(=O)NC(CCSC)C(=O)O)C1` (stereo partly drawn) [Example 21, N-[(3aRS, 4SR, 9SR, 9aRS)-4,9-ethano-2-(2-methoxyphenyl)acetyl-9-phenyl-2,3,3a,4,9,9a-hexahydro-1H-benzo[f]isoindole-3a-yl]acetylmethionine], the IC50 under setting [1] is 3750 nM.
The same measure, in the same setting: for `C=C(C(=O)N1C[C@H]2[C@@]3(c4ccccc4)CC[C@H](c4ccccc43)[C@@]2(C(=O)N[C@H](C(=O)O)c2ccccc2)C1)c1ccccc1OC` [Example 81, N-[(3aS,4R,9R,9aS)-4,9-ethano-2-[(2-methoxy-phenyl)prop-2-en-1-oyl]-9-phenyl-2,3,3a,4,9,9a-hexahydro-1H-benzo[f]isoindol-3a-ylcarboxamide]-(S)-phenylglycine] the value was 50 nM.
As to `COc1ccccc1CC(=O)N1CC2C3(c4ccccc4)CCC(c4ccccc43)C2(C(=O)N[C@@H](CS)C(=O)O)C1` (stereo partly drawn) [Example 53, N-[(3aRS,4SR,9SR,9aRS)-4,9-ethano-2-(2-methoxyphenyl)acetyl-9-phenyl-2,3,3a,4,9,9a-hexahydro-1H-benzo[f]isoindol-3a-yl]carbonyl-L-cysteine], the IC50 under setting [1] worked out at 590 nM.
The molecule `COc1ccccc1CC(=O)N1C[C@H]2[C@@]3(c4ccccc4)CC[C@H](c4ccccc43)[C@@]2(C(=O)O)C1` [Example 47, 4,9-ethano-2-[(2-methoxyphenyl)acetyl]-9-phenyl-2,3,3a(S),4(R),9(R),9a(S)-hexahydro-1H-benzo[f]isoindole-3a-carboxylic acid] returned an IC50 of 140 nM.
For `CCOC(=O)[C@]12CN(C(=O)Cc3ccccc3OC)C[C@H]1[C@@]1(c3ccccc3)CC[C@@H]2c2ccccc21` (relative stereo) [Example 10, ethyl ester of (3aRS, 4SR, 9SR, 9aRS)-4,9-ethano-2-(2-methoxyphenyl)acetyl-9-phenyl-2,3,3a,4,9,9a-hexahydro-1H-benzo[f]isoindol-3a-carboxylic acid], the IC50 under setting [1] worked out at 4350 nM.
Regarding `C=C(C(=O)N1C[C@H]2[C@@]3(c4ccccc4)CC[C@H](c4ccccc43)[C@@]2(C(=O)NC2CCSc3ccccc32)C1)c1ccccc1OC` (stereo partly drawn) [Example 88, (3aS,4R,9R,9aS)-N-[(R,S)-4-benzo[b]thiopyranyl]-4,9-ethano-2-[(2-methoxyphenyl)prop-2-en-1-oyl]-9-phenyl-2,3,3a,4,9,9a-hexahydro-1H-benzo[f]isoindole-3a-carboxamide], the IC50 under setting [1] came to 2500 nM.
On the same count and under the same terms, for `CONC(=O)[C@@]12CN(C(=O)Cc3ccccc3OC)C[C@@H]1[C@]1(c3ccccc3)CC[C@H]2c2ccccc21` (relative stereo) [Example 56, (3aRS,4SR,9SR,9aRS)-N-methoxy-4,9-ethano-2-(2-methoxyphenyl)acetyl-9-phenyl-2,3,3a,4,9,9a-hexahydro-1H-benzo[f]isoindole-3a-carboxamide] the value was 8400 nM.
